Results published in patent US12202844B2, “MAP4K1 inhibitors” (Blueprint Medicines Corporation, priority 2021, dated 2025).
Where two headings read alike, the source gives them in different places.

Tests used:
MAP4K1 (HPK1) = target: T1, MAP4K1 (HPK1) (Homo sapiens, UniProt Q92918); experiment: Inhibition of MAP4K1 biochemical enzymatic activity (EZReader 2 electrophoretic mobility shift); settings: HPK1 (Invitrogen), S6K2tide 1.5 μM, 120 min; ATP 26 μM or 1000 μM (not given)
T1 construct: purchased Invitrogen
T1 sequence (Q92918 whole entry): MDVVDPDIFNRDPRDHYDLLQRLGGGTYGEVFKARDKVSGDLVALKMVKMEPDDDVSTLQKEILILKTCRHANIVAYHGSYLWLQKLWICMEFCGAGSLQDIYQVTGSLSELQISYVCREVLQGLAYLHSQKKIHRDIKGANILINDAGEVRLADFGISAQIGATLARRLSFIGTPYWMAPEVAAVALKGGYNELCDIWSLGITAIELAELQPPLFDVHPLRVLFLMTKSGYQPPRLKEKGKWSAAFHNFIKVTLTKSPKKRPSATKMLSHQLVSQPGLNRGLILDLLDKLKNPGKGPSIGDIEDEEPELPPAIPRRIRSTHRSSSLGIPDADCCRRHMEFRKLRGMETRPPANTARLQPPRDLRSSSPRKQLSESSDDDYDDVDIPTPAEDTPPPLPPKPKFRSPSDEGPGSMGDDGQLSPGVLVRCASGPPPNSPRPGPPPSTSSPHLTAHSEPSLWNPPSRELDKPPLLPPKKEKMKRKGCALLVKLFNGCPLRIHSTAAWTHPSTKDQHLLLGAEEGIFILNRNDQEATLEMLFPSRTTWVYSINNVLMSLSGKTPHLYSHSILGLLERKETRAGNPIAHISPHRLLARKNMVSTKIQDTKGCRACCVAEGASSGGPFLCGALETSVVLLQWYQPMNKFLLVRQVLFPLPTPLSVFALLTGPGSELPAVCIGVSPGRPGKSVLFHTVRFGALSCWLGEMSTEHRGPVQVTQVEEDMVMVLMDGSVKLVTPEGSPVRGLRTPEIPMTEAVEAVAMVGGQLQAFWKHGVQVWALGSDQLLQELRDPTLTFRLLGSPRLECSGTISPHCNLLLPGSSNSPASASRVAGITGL
In short: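 Untreated enzyme (0.1-15 nM) was incubated with 1.5 μM fluorescent peptide and 20-1000 μM ATP (apparent Km or 1 mM) in HEPES pH 7.5, MgCl2, DTT, Brij 35 at 25° C. for 60-180 min, with 1% DMSO and a 10-point 4-fold compound series. After an EDTA stop, product/substrate peptide peak ratio was read by mobility shift.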

[1] = test system: Primary T Cell (expanded CD3+ T cells); experiment: T cell enhancement of cytokines: IL2 measurement (HTRF) in stimulated expanded CD3+ T cells; type: cell-based, human; settings: plate-bound anti-CD3 and soluble anti-CD28, 24 h, IL2 by HTRF, read-out: IL-2 Primary T Cell EC50
In short: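 Healthy-donor T cells (95-98% CD3+) expanded 10-14 days with IL2 and CD3/CD28 beads, then cryopreserved. 100K cells/well in X-VIVO 10 serum-free medium were stimulated with plate-bound anti-CD3 plus soluble anti-CD28 with compound at various concentrations for 24 h. Secreted IL2 measured by HTRF after 24 h antibody incubation.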

| SMILES | IC50 (MAP4K1 (HPK1)) | EC50 ([1]; Homo sapiens, T-cell, 24 h) | EC50 [1] |
| --- | --- | --- | --- |
| CCC[C@@](C)(N)c1cnc(O[C@H](C)CCS(C)(=O)=O)c2cnc(Nc3ccc4c(n3)CC(C)(C)OC4=O)cc12 (single isomer, unassigned) [Compound 85] | 0.37 nM | 85 nM | – |
| COC[C@@](C)(N)c1cnc(O[C@H]2C[C@H](CS(C)(=O)=O)C2)c2cnc(Nc3ccc4c(n3)[C@@H](C)C(C)(C)OC4=O)cc12 [Compound 139] | 0.36 nM | 74 nM | – |
| C[C@@H]1OC(=O)c2ccc(Nc3cc4c(C(C)(C)N)cnc(O[C@@H](C)C[C@@H]5CCCS5(=O)=O)c4cn3)nc2[C@H]1C (single isomer, unassigned) [Compound 155] | 0.37 nM | 17 nM | – |
| CC[C@@](C)(N)c1cnc(O[C@H](C)C[C@@H](C)[S@@](C)(=N)=O)c2cnc(Nc3ccc4c(n3)C(C)(C)[C@@H](C)OC4=O)cc12 (single isomer, unassigned) [Compound 182] | 0.16 nM | – | 21 nM |
| CCS(=O)(=O)[C@H]1C[C@@H](Oc2ncc([C@](C)(N)COC)c3cc(Nc4ccc5c(n4)[C@@H](C)C(C)(C)OC5=O)ncc23)C1 [Compound 141] | 0.15 nM | 15 nM | – |
| CC[C@@](C)(N)c1cnc(O[C@@H]2C[C@H](S(C)(=O)=O)[C@H]2C)c2cnc(Nc3ccc4c(n3)[C@@H](C)[C@H](C)OC4=O)cc12 (single isomer, unassigned) [Compound 151] | 0.16 nM | – | 9 nM |
| CC[C@@H](N)c1cnc(O[C@H]2C[C@@H](S(C)(=O)=O)C2)c2cnc(Nc3ccc4c(n3)[C@@H](C)C(C)(C)OC4=O)cc12 (single isomer, unassigned) [Compound 176] | 0.23 nM | 69 nM | – |
| CC[C@@](C)(N)c1cnc(O[C@H](C)C[C@@H](C)S(=O)(=O)CC)c2cnc(Nc3ccc4c(n3)[C@@H](C)[C@H](C)OC4=O)cc12 [Compound 127, (7S,8R)-2-((5-((R)-2-Aminobutan-2-yl)-8-(((2R,4R)-4-(ethylsulfonyl)pentan-2-yl)oxy)-2,7-naphthyridin-3-yl)amino)-7,8-dimethyl-7,8-dihydro-5H-pyrano[4,3-b]pyridin-5-one] | 0.12 nM | 10 nM | – |
